Test results as given in ChEMBL document CHEMBL3751669, “Structural refinement of pyrazolo[4,3-d]pyrimidine derivatives to obtain highly potent and selective antagonists for the human A3 adenosine receptor” (Eur J Med Chem, 2016).

Experiments:
Adenosine receptor A1 = biological target: T1, Adenosine receptor A1 (Homo sapiens, UniProt P30542); assay: Displacement of [3H]DPCPX at human A1 receptor expressed in CHO cell membrane after 120 mins by scintillation counting method; format: cell membranes
T1 sequence (P30542 whole entry): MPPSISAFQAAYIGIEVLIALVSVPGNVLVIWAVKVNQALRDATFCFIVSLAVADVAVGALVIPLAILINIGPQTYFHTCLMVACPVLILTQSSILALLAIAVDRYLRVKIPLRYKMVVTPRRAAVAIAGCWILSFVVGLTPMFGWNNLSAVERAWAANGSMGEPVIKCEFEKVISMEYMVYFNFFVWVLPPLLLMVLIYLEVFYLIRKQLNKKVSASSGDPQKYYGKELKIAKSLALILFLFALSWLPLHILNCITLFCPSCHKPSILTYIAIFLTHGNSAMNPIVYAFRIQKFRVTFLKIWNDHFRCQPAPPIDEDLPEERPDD

Adenosine receptor A2a [1] = biological target: T2, Adenosine receptor A2a (Homo sapiens, UniProt P29274); assay: Displacement of [3H]ZM241385 at human A2A receptor expressed in CHO cell membrane after 60 mins by scintillation counting method; format: cell membranes
Adenosine receptor A3 [2] = biological target: T3, Adenosine receptor A3 (Homo sapiens, UniProt P0DMS8); assay: Displacement of [125I]AB-MECA at human […] receptor expressed in CHO cell membrane after 60 mins by scintillation counting method; format: cell membranes
T3 sequence (P0DMS8 whole entry): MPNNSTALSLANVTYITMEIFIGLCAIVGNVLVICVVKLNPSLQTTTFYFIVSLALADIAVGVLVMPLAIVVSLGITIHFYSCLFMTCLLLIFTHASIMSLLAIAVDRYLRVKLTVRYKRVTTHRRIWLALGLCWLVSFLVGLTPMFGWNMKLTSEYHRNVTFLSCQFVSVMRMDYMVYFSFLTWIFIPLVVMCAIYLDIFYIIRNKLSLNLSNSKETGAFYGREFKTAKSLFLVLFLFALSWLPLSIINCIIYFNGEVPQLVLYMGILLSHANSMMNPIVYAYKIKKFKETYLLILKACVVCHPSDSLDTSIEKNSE

[3] = biological target: T4, Adenosine receptor A2b (Homo sapiens) (UniProt P29275); assay: Antagonist activity at human A2B receptor expressed in CHO cells assessed as inhibition of NECA-stimulated cAMP production at 1 uM by scintillation counting method; format: functional, cell-based
T4 sequence (whole entry): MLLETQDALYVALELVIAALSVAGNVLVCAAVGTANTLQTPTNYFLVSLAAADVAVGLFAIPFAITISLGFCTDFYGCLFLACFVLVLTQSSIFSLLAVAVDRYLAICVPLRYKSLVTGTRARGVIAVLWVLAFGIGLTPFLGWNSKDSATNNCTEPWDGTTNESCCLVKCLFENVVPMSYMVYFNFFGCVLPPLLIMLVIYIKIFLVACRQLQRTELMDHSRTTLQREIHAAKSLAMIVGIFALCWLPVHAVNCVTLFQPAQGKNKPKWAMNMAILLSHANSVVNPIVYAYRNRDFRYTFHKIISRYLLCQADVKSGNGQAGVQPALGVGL

[4] = biological target: T5, Adenosine receptor A1 (Homo sapiens) (UniProt P30542); assay: Displacement of [3H]DPCPX at human A1 receptor expressed in CHO cell membrane at 1 uM after 120 mins by scintillation counting method; format: cell membranes
T5 sequence (whole entry): T1 sequence (P30542 whole entry)

Adenosine receptor A2a [5] = biological target: T2, Adenosine receptor A2a; assay: Displacement of [3H]ZM241385 at human A2A receptor expressed in CHO cell membrane at 1 uM after 60 mins by scintillation counting method; format: cell membranes
[6] = biological target: T6, Adenosine receptor A3 (Homo sapiens) (UniProt P0DMS8); assay: Displacement of [125I]AB-MECA at human […] receptor expressed in CHO cell membrane at 1 uM after 60 mins by scintillation counting method; format: cell membranes
T6 sequence (whole entry): T3 sequence (P0DMS8 whole entry)

Adenosine receptor A3 [7] = biological target: T7, Adenosine receptor A3 (Rattus norvegicus, UniProt P28647); assay: Displacement of [125I]AB-MECA at rat A3 receptor expressed in HEK293 cells after 60 mins by scintillation counting method; format: cell-based
T7 sequence (P28647 whole entry): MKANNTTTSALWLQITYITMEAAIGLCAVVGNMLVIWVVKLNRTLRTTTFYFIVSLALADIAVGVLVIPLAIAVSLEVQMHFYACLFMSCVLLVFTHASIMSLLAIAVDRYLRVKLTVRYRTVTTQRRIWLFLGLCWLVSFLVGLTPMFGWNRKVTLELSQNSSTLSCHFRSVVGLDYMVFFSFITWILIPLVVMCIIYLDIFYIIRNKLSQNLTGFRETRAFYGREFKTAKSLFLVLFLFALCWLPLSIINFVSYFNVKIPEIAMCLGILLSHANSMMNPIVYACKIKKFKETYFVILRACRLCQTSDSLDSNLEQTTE

Adenosine receptor A3 [8] = biological target: T3, Adenosine receptor A3; assay: Antagonist activity at human A3 receptor expressed in CHO cells assessed as inhibition of Cl-IB-MECA-induced cAMP production by scintillation counting method; format: functional, cell-based

T2 sequence (P29274 whole entry): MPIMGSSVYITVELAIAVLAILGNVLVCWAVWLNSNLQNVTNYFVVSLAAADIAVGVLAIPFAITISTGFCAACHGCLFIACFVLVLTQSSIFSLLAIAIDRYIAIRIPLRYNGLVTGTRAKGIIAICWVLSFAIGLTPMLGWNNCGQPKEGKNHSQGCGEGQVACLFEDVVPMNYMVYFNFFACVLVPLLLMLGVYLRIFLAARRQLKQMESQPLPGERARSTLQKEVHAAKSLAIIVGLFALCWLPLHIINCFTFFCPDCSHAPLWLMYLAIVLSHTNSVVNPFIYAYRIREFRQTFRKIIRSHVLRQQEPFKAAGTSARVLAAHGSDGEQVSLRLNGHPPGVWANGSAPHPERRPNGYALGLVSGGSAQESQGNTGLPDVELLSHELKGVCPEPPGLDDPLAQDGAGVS

| SMILES | Ki (Adenosine receptor A1) | Ki (Adenosine receptor A2a [1]) | Ki (Adenosine receptor A3 [2]) | inhibition [3] | inhibition [4] | inhibition (Adenosine receptor A2a [5]) | inhibition [6] | Ki (Adenosine receptor A3 [7]) | IC50 (Adenosine receptor A3 [8]) |
| --- | --- | --- | --- | --- | --- | --- | --- | --- | --- |
| O=c1[nH]c(-c2cccs2)nc2cn(-c3ccccc3)nc12 |  |  | 413 nM | 1% | 6% | 14% |  |  |  |
| Cc1nc2cn(-c3ccccc3F)nc2c(=O)[nH]1 |  |  | 225 nM | 1% | 1% | 1% |  |  |  |
| Cc1nc2nn(-c3ccccc3)nc2c(=O)[nH]1 |  |  | 321 nM | 1% | 32% | 14% |  |  |  |
| Cc1ccc(-c2nc3cn(-c4ccccc4)nc3c(=O)[nH]2)o1 |  |  | 868 nM | 1% | 1% | 15% |  |  |  |
| COc1ccc(-c2nc3cn(C)nc3c(=O)[nH]2)cc1 |  |  |  | 1% | 2% | 1% | 1% |  |  |
| O=C(Cc1ccccc1)Nc1nc(-c2cccs2)nc2cn(-c3ccccc3)nc12 |  |  | 3.53 nM | 1% | 32% | 1% |  |  | 8.45 nM |
| O=C(Cc1ccccc1)Nc1nc(-c2ccccc2)nc2cn(Cc3ccccc3)nc12 |  |  | 202 nM | 1% | 7% | 9% |  |  |  |
| Cc1nc(N)c2nn(-c3ccccc3)nc2n1 | 213 nM |  |  | 1% |  | 6% | 1% |  |  |
| COc1ccc(-c2nc(N)c3nn(-c4ccccc4)cc3n2)cc1 |  |  | 33 nM | 2% | 33% | 1% |  |  |  |
| O=C(Nc1nc(-c2cccs2)nc2cn(-c3ccccc3)nc12)c1ccncc1 |  |  | 9.54 nM | 1% | 20% | 1% |  | > 10000 nM | 37 nM |
| Cc1nc2cn(-c3ccccc3)nc2c(=O)[nH]1 |  |  |  | 3% |  |  |  |  |  |
| O=c1[nH]c(-c2ccco2)nc2cn(-c3ccccc3)nc12 |  |  |  | 1% | 1% | 12% | 30% |  |  |
| O=C(Nc1nc(-c2cccs2)nc2cn(-c3ccccc3)nc12)c1ccco1 | 552 nM |  | 2.34 nM | 1% |  | 21% |  |  | 5.47 nM |
| Cn1cc2nc(-c3ccccc3)nc(N)c2n1 |  |  |  | 1% | 31% | 1% | 1% |  |  |
| Cn1cc2nc(-c3ccccc3)[nH]c(=O)c2n1 |  |  |  | 1% | 1% | 1% | 20% |  |  |
| O=C(c1ccco1)N(C(=O)c1ccco1)c1nc(-c2cccs2)nc2cn(-c3ccccc3)nc12 | 687 nM |  | 1.82 nM | 1% |  | 2% |  |  | 4.37 nM |
| COc1ccc(-c2nc(N)c3nn(-c4ccc(OC)cc4)cc3n2)cc1 |  |  | 17 nM | 1% | 1% | 3% |  |  |  |
| COc1ccc(C(=O)Nc2nc(-c3ccc(OC)cc3)nc3cn(-c4ccccc4)nc23)cc1 |  |  | 1.31 nM | 1% | 3% | 1% |  | > 10000 nM | 4.27 nM |
| COc1ccc(-c2nc(NC(=O)c3ccccc3)c3nn(-c4ccccc4)cc3n2)cc1 |  |  | 6.42 nM | 1% | 2% | 1% |  | > 10000 nM | 26 nM |

The next lines start with the values.

| Ki (Adenosine receptor A1) | Ki (Adenosine receptor A2a [1]) | Ki (Adenosine receptor A3 [2]) | inhibition [3] | inhibition [4] | inhibition (Adenosine receptor A2a [5]) | inhibition [6] | Ki (Adenosine receptor A3 [7]) | IC50 (Adenosine receptor A3 [8]) | SMILES |
| --- | --- | --- | --- | --- | --- | --- | --- | --- | --- |
| 52 nM | 115 nM | 9.7 nM | 27% |  |  |  |  |  | Nc1nc(-c2cccs2)nc2cn(-c3ccccc3)nc12 |
|  |  |  | 1% | 8% | 11% | 23% |  |  | O=c1[nH]c(-c2ccccc2)nc2nn(-c3ccccc3)nc12 |
|  |  | 9.83 nM | 1% | 3% | 1% |  | > 10000 nM | 39 nM | COc1ccc(-c2nc(NC(=O)c3ccncc3)c3nn(-c4ccccc4)cc3n2)cc1 |
|  |  | 247 nM | 1% | 5% | 1% |  |  |  | COc1ccc(-n2cc3nc(-c4cccs4)[nH]c(=O)c3n2)cc1 |
|  |  | 0.027 nM | 1% | 1% | 1% |  | > 10000 nM | 0.11 nM | COc1ccc(C(=O)Nc2nc(-c3cccs3)nc3cn(-c4ccccc4)nc23)cc1 |
| 250 nM | 300 nM | 54 nM | 1% |  |  |  |  |  | Nc1nc(-c2ccccc2)nc2cn(Cc3ccccc3)nc12 |
|  |  | 130 nM | 1% | 6% | 1% |  |  |  | O=c1[nH]c(-c2ccccc2)nc2cn(Cc3ccccc3)nc12 |
| 400 nM |  | 250 nM | 1% |  | 35% |  |  |  | Nc1nc(Cc2cccs2)nc2cn(-c3ccccc3)nc12 |
| 764 nM |  | 0.41 nM | 1% |  | 3% |  |  | 1.01 nM | O=C(Nc1nc(-c2cccs2)nc2cn(-c3ccccc3)nc12)c1cccnc1 |
|  |  | 432 nM | 7% | 31% | 33% |  |  |  | Nc1nc(-c2ccc(O)cc2)nc2cn(-c3ccccc3)nc12 |
|  |  |  | 1% | 38% | 3% | 1% |  |  | Nc1nc(-c2ccccc2)nc2nn(-c3ccccc3)nc12 |
|  |  | 485 nM | 1% | 6% | 1% |  |  |  | Cc1nc2cn(Cc3ccccc3)nc2c(=O)[nH]1 |
|  |  |  | 5% |  |  |  |  |  | O=c1[nH]c(-c2ccccc2)nc2cn(-c3ccccc3)nc12 |
|  |  | 223 nM | 2% | 36% | 24% |  |  |  | O=C(Nc1nc(-c2ccccc2)nc2cn(Cc3ccccc3)nc12)c1ccccc1 |
|  |  |  | 3% | 13% | 1% | 4% |  |  | Nc1nc(-c2ccc(Cl)cc2)nc2cn(-c3ccccc3)nc12 |
|  |  | 78 nM | 31% | 28% | 35% |  |  |  | COc1ccc(-n2cc3nc(-c4cccs4)nc(N)c3n2)cc1 |
| 466 nM |  | 2.43 nM | 1% |  | 7% |  |  | 5.59 nM | O=C(Nc1nc(-c2cccs2)nc2cn(-c3ccccc3)nc12)c1cccs1 |
|  |  |  | 1% | 1% | 1% | 1% |  |  | Cc1nc2cn(C)nc2c(=O)[nH]1 |
|  |  | 2.12 nM | 1% | 1% | 1% |  | > 10000 nM | 5.32 nM | O=C(Nc1nc(-c2cccs2)nc2cn(-c3ccccc3)nc12)c1ccccc1 |
|  |  | 5.87 nM | 1% | 18% | 1% |  |  | 13 nM | O=C(Nc1nc(-c2ccccc2)nc2cn(-c3ccccc3)nc12)c1cccs1 |
